The source of these data is publication PMC6820371, “Terbium-161 for PSMA-targeted radionuclide therapy of prostate cancer” (European Journal of Nuclear Medicine and Molecular Imaging, 2019).

The subject of series [1] is PC-3 PIP tumor cells. The experiment in a line: Cell viability assay (MTT assay). The format is cell-based, human. The note with it: DTPA complexes, 0.01–20 MBq/mL; marginal reduction at higher concentration. On the procedure:
The detailed methods of these studies, including dosimetric calculations, are described in the Supplementary material. The results were analyzed for statistical significance by a two-way ANOVA with Sidak’s multiple comparison post-test using Graph Pad Prism (version 7).
Methods: Tumor cell viability was assessed using a 3-(4,5-dimethylthiazol-2-yl)-2,5-diphenyltetrazolium bromide (MTT) assay as described by Mosmann. PC-3 PIP tumor cells (2500 cells in 200 μL RPMI medium with supplements) were seeded in 96-well plates and incubated overnight (37°C; 5% CO2) to allow adhesion of the tumor cells. The supernatants were removed and the tumor cells were washed once with 200 μL PBS. Afterwards, the tumor cells were incubated in 200 μL RPMI medium (without supplements) containing ^161Tb-PSMA-617 or ^177Lu-PSMA-617 (0.01‒20 MBq/mL), respectively, or just RPMI medium without addition of radioligands. PSMA-negative PC-3 flu tumor cells were also treated with these radioligands under the same experimental conditions using the same concentration range. Additional cell viability assays were performed with PC-3 PIP tumor cells incubated with RPMI medium (without supplements) containing ^161Tb-diethylenetriaminepentaacetic acid (DPTA) or ^177Lu-DTPA (0.01 – 20 MBq/mL). After 4 h incubation (37 °C; 5% CO2), the tumor cells were washed once with 200 μL PBS, followed by the addition of 200 μL of RPMI medium (with supplements) to each well. The tumor cells were left to grow for 6 days under standard cell culture conditions (37 °C, 5% CO2). At Day 6 after treatment, MTT reagent (5 mg/mL in PBS, 30 μL per well) was added to each well to allow the formation of dark-violet formazan crystals within 4 h incubation. The crystals were dissolved by the addition of dimethyl sulfoxide to determine the absorbance at 560 nm using a microplate reader (Victor X3, Perkin Elmer). Cell viability was quantified by expressing the absorbance of the test samples as percentage of the absorbance of control (untreated) cell samples which was set to 100%. Statistical analysis was performed using a two-way ANOVA with Sidak’s multiple comparison post-test in Graph Pad Prism (version 7).
A general note: Tetrazolium dyes change colour on reduction, which living cells bring about.

For series [2], the system named is PC-3 PIP tumor cells. The experiment in a line: Cell survival assay (clonogenic assay). The format is cell-based, human. The following applies: DTPA complexes, 0.01–10 MBq/mL; marginal reduction at higher concentration.
Series [3] relates to PSMA-positive PC-3 PIP tumor cells. The series can be described thus: Tumor cell uptake and internalization. It counts as cell-based, human. The following applies: 2–4 h incubation.
In series [4] the test system is PSMA-negative PC-3 flu tumor cells. The experiment in a line: Tumor cell uptake and internalization. The format is cell-based. The following applies: 2–4 h incubation.
Series [5] has as its system mice inoculated with PC-3 PIP cells. The series can be described thus: Additional therapy study (injection 2 days after tumor cell inoculation). The format is in vivo. The note with it: for Median Survival: control 26 days. On the procedure: The day of the treatment, two days after tumor cell inoculation, was defined as Day 0 of the study (Table S7).
Endpoint criteria: The mice were monitored until they reached an endpoint (definition of endpoints, see Chapter 13) or over the whole period of 38 days when the study was terminated.
Data analysis of the therapy study: The tumor growth delay indices (TGDI2 and TGDI5) were calculated as reported in the Methods of the main manuscript. The median survival was determined using GraphPad Prism software (version 7).

Details of series [6]: method as in Benešová et al. 2018 [4]. The note with it: saline, in the presence of l-ascorbic acid, up to 24 h; ref Benešová et al. 2018 [4]; cited from earlier work.
Details of series [7]: method as in Benešová et al. [4]. The following applies: PBS pH 7.4; ref Benešová et al. [4]; cited from earlier work.
The test system of series [8] is PC-3 PIP tumor-bearing mice. On the set-up: method as in PMID 29684274. The note with it: 5.0 MBq; cited from earlier work.

The structures appear in SMILES notation.

Consider `O=C([O-])CN(CCN(CC(=O)[O-])CC(=O)[O-])CCN(CC(=O)[O-])CC(=O)[O-].[177Lu+3]` [^177Lu-DTPA, reference compound], for which the “Viability of PC-3 PIP tumor cells” value in series [1] was “not affected”. The “Survival of PC-3 PIP tumor cells” value in series [2] is recorded as “not affected”.
For the compound `O=C([O-])CN(CCN(CC(=O)[O-])CC(=O)[O-])CCN(CC(=O)[O-])CC(=O)[O-].[161Tb+3]` [^161Tb-DPTA, ^161Tb-diethylenetriaminepentaacetic acid, reference compound], the “Viability of PC-3 PIP tumor cells” value in series [1] was “not affected”. Also, in series [2], the “Survival of PC-3 PIP tumor cells” value is “not affected”.
Regarding `O=C([O-])CN1CCN(CC(=O)[O-])CCN(CC(=O)NCC2CCC(C(=O)N[C@@H](Cc3ccc4ccccc4c3)C(=O)NCCCC[C@H](NC(=O)N[C@@H](CCC(=O)O)C(=O)O)C(=O)O)CC2)CCN(CC(=O)[O-])CC1.[177Lu+3]` (stereo partly shown) [^177Lu-PSMA-617, reference compound], in series [3], the “PC-3 PIP tumor cell uptake” value is 49–58%. Moreover, the Internalized fraction in series [3] (PC-3 PIP) is 9–12%. In addition, in series [4], the “Uptake in PC-3 flu tumor cells” value was below 0.5%. In addition, the First mouse euthanized in series [5] (2.5 MBq) is 20 days; in series [5] (5.0 MBq), 24 days; in series [5] (10 MBq, study end Day 38) it was “Study end”. Moreover, the results for the TGDI2 in series [5] (2.5 MBq), in series [5] (5.0 MBq) and in series [8] were 0.8 ± 0.4, 1.0 ± 0.4 and 2.1 ± 0.3, respectively. Further, the TGDI5 in series [5] (2.5 MBq) is 1.0 ± 0.3. Further, the “Median Survival” value in series [5] (2.5 MBq) was 27 days; in series [5] (5.0 MBq), 30 days; in series [8], 32 days. Besides, the Last mouse euthanized entry was “study end” in series [5] (2.5 MBq, study end Day 38); “study end” in series [5] (5.0 MBq, study end Day 38); “study end” in series [5] (10 MBq, study end Day 38); 40 days in series [8]. Further, the Survival entry in series [5] (10 MBq) was “survived until the end of the study at Day 38”. The “Cases in which tumors started to regrow” value in series [5] (10 MBq, from about Day 20 on) is on record as 50%. Moreover, the “Stability (intact radioligand)” value in series [6] is reported as at least 98%. The “n-octanol/PBS distribution coefficient (logD value)” value in series [7] is recorded as “–4.4 ± 0.1”.
